Tested on: NCI-H929 complex spheroids, viability % test/control
Experiment: Anticancer human tumor NCI-H929 cell line growth inhibition [RAS];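 also: compound exposure lasted seven days before viability was read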;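 as to viability, T/C: 100% = DMSO vehicle control viability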
Conditions: for IC50: curve of first compound; for viability, T/C: stronger effect = lower value
Method in brief: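 Multi-cell-type spheroids: tumor cells plus HUVEC endothelial cells and mesenchymal stem cells. RAS-pathway inhibitors were combined with targeted agents, each dosed in half-log steps down from clinical Cmax, or from 10 microM when Cmax was unknown.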

[1] = second compound 0.000949 µM, first compound 0.00316 µM
[2] = second compound 0.000949 µM, first compound 0.01 µM
[3] = second compound 0.000949 µM, first compound 0.0316 µM
[4] = second compound 0.000949 µM, first compound 0.1 µM
[5] = second compound 0.000949 µM, first compound 0.316 µM
[6] = second compound 0.000949 µM, first compound 1 µM
[7] = second compound 0.003 µM, first compound 0.00316 µM
[8] = second compound 0.003 µM, first compound 0.01 µM
[9] = second compound 0.003 µM, first compound 0.0316 µM
[10] = second compound 0.003 µM, first compound 0.1 µM
[11] = second compound 0.003 µM, first compound 0.316 µM
[12] = second compound 0.003 µM, first compound 1 µM
[13] = second compound 0.00949 µM, first compound 0.00316 µM
[14] = second compound 0.00949 µM, first compound 0.01 µM
[15] = second compound 0.00949 µM, first compound 0.0316 µM
[16] = second compound 0.00949 µM, first compound 0.1 µM
[17] = second compound 0.00949 µM, first compound 0.316 µM
[18] = second compound 0.00949 µM, first compound 1 µM
[19] = second compound 0.03 µM, first compound 0.00316 µM
[20] = second compound 0.03 µM, first compound 0.01 µM
[21] = second compound 0.03 µM, first compound 0.0316 µM
[22] = second compound 0.03 µM, first compound 0.1 µM
[23] = second compound 0.03 µM, first compound 0.316 µM
[24] = second compound 0.03 µM, first compound 1 µM
[25] = second compound 0.0949 µM, first compound 0.00316 µM
[26] = second compound 0.0949 µM, first compound 0.01 µM
[27] = second compound 0.0949 µM, first compound 0.0316 µM
[28] = second compound 0.0949 µM, first compound 0.1 µM
[29] = second compound 0.0949 µM, first compound 0.316 µM
[30] = second compound 0.0949 µM, first compound 1 µM
[31] = second compound 0.3 µM, first compound 0.00316 µM
[32] = second compound 0.3 µM, first compound 0.01 µM
[33] = second compound 0.3 µM, first compound 0.0316 µM
[34] = second compound 0.3 µM, first compound 0.1 µM
[35] = second compound 0.3 µM, first compound 0.316 µM
[36] = second compound 0.3 µM, first compound 1 µM

## C=CC(=O)N1CCN(c2nc(OCC3CCCN3C)nc3c(F)c(-c4nc(N)cc(C)c4C(F)(F)F)c(Cl)cc23)C(C)C1 (stereo unspecified) + CCn1c(-c2cc(N3CCN(C)CC3)cnc2C(C)OC)c2c3cc(ccc31)-c1csc(n1)CC(NC(=O)C1CC1C)C(=O)N1CCCC(N1)C(=O)OCC(C)(C)C2
Second compound 0.000949 µM
  IC50: > 1000 nM
Second compound 0.003 µM
  IC50: > 1000 nM
Second compound 0.00949 µM
  IC50: > 1000 nM
Second compound 0.03 µM
  IC50: > 1000 nM
Second compound 0.0949 µM
  IC50: < 3.16 nM
Second compound 0.3 µM
  IC50: < 3.16 nM
[1]
  viability, T/C: 98.6%
[2]
  viability, T/C: 92.4%
[3]
  viability, T/C: 102%
[4]
  viability, T/C: 96.4%
[5]
  viability, T/C: 101%
[6]
  viability, T/C: 107%
[7]
  viability, T/C: 89.5%
[8]
  viability, T/C: 97.1%
[9]
  viability, T/C: 97.5%
[10]
  viability, T/C: 96.6%
[11]
  viability, T/C: 101%
[12]
  viability, T/C: 97.2%
[13]
  viability, T/C: 109%
[14]
  viability, T/C: 115%
[15]
  viability, T/C: 116%
[16]
  viability, T/C: 114%
[17]
  viability, T/C: 114%
[18]
  viability, T/C: 116%
[19]
  viability, T/C: 69.4%
[20]
  viability, T/C: 70.8%
[21]
  viability, T/C: 78.2%
[22]
  viability, T/C: 91%
[23]
  viability, T/C: 89.7%
[24]
  viability, T/C: 65.1%
[25]
  viability, T/C: 8.79%
[26]
  viability, T/C: 7.92%
[27]
  viability, T/C: 7.39%
[28]
  viability, T/C: 10.4%
[29]
  viability, T/C: 12.4%
[30]
  viability, T/C: 8.5%
[31]
  viability, T/C: 4.59%
[32]
  viability, T/C: 4.22%
[33]
  viability, T/C: 3.75%
[34]
  viability, T/C: 4.24%
[35]
  viability, T/C: 4.79%
[36]
  viability, T/C: 3.26%

## CC1(C)CCC(Nc2ncc(C(F)(F)F)c(-c3c[nH]c4c(P(C)(C)=O)c(C#N)ccc34)n2)CN1 (stereo unspecified) + CCn1c(-c2cc(N3CCN(C)CC3)cnc2C(C)OC)c2c3cc(ccc31)-c1csc(n1)CC(NC(=O)C1CC1C)C(=O)N1CCCC(N1)C(=O)OCC(C)(C)C2
Second compound 0.000949 µM
  IC50: 2.23 nM
Second compound 0.003 µM
  IC50: 2.53 nM
Second compound 0.00949 µM
  IC50: 1.94 nM
Second compound 0.03 µM
  IC50: < 0.949 nM
Second compound 0.0949 µM
  IC50: < 0.949 nM
Second compound 0.3 µM
  IC50: < 0.949 nM
Second compound 0.000949 µM, first compound 0.000949 µM
  viability, T/C: 116%
Second compound 0.000949 µM, first compound 0.003 µM
  viability, T/C: 26.9%
Second compound 0.000949 µM, first compound 0.00949 µM
  viability, T/C: 8.16%
Second compound 0.000949 µM, first compound 0.03 µM
  viability, T/C: 6.16%
Second compound 0.000949 µM, first compound 0.0949 µM
  viability, T/C: 4.71%
Second compound 0.000949 µM, first compound 0.3 µM
  viability, T/C: 3.65%
Second compound 0.003 µM, first compound 0.000949 µM
  viability, T/C: 112%
Second compound 0.003 µM, first compound 0.003 µM
  viability, T/C: 39.4%
Second compound 0.003 µM, first compound 0.00949 µM
  viability, T/C: 10.1%
Second compound 0.003 µM, first compound 0.03 µM
  viability, T/C: 7.4%
Second compound 0.003 µM, first compound 0.0949 µM
  viability, T/C: 5.4%
Second compound 0.003 µM, first compound 0.3 µM
  viability, T/C: 4.64%
Second compound 0.00949 µM, first compound 0.000949 µM
  viability, T/C: 91.8%
Second compound 0.00949 µM, first compound 0.003 µM
  viability, T/C: 24.4%
Second compound 0.00949 µM, first compound 0.00949 µM
  viability, T/C: 8.42%
Second compound 0.00949 µM, first compound 0.03 µM
  viability, T/C: 5.44%
Second compound 0.00949 µM, first compound 0.0949 µM
  viability, T/C: 5.01%
Second compound 0.00949 µM, first compound 0.3 µM
  viability, T/C: 4.22%
Second compound 0.03 µM, first compound 0.000949 µM
  viability, T/C: 16.8%
Second compound 0.03 µM, first compound 0.003 µM
  viability, T/C: 5.53%
Second compound 0.03 µM, first compound 0.00949 µM
  viability, T/C: 2.91%
Second compound 0.03 µM, first compound 0.03 µM
  viability, T/C: 2.43%
Second compound 0.03 µM, first compound 0.0949 µM
  viability, T/C: 1.95%
Second compound 0.03 µM, first compound 0.3 µM
  viability, T/C: 1.14%
Second compound 0.0949 µM, first compound 0.000949 µM
  viability, T/C: 2.94%
Second compound 0.0949 µM, first compound 0.003 µM
  viability, T/C: 1.38%
Second compound 0.0949 µM, first compound 0.00949 µM
  viability, T/C: 1.46%
Second compound 0.0949 µM, first compound 0.03 µM
  viability, T/C: 0.67%
Second compound 0.0949 µM, first compound 0.0949 µM
  viability, T/C: 0.66%
Second compound 0.0949 µM, first compound 0.3 µM
  viability, T/C: 0.53%
Second compound 0.3 µM, first compound 0.000949 µM
  viability, T/C: 1.65%
Second compound 0.3 µM, first compound 0.003 µM
  viability, T/C: 0.63%
Second compound 0.3 µM, first compound 0.00949 µM
  viability, T/C: 0.85%
Second compound 0.3 µM, first compound 0.03 µM
  viability, T/C: 1.47%
Second compound 0.3 µM, first compound 0.0949 µM
  viability, T/C: 0.57%
Second compound 0.3 µM, first compound 0.3 µM
  viability, T/C: 0.6%

## C=CC(=O)Nc1cc(Nc2nccc(-c3cn(C)c4ccccc34)n2)c(OC)cc1N(C)CCN(C)C + CCn1c(-c2cccnc2C(C)OC)c2c3cc(ccc31)N1CCOC(CC(NC(=O)C(C(C)C)N(C)C(=O)C3(F)CCN(C(=O)C#CC(C)(C)N(C)C)CC3)C(=O)N3CCCC(N3)C(=O)OCC(C)(C)C2)C1
Second compound 0.000949 µM
  IC50: > 1000 nM
Second compound 0.003 µM
  IC50: > 1000 nM
Second compound 0.00949 µM
  IC50: > 1000 nM
Second compound 0.03 µM
  IC50: > 1000 nM
Second compound 0.0949 µM
  IC50: > 1000 nM
Second compound 0.3 µM
  IC50: > 1000 nM
[1]
  viability, T/C: 105%
[2]
  viability, T/C: 98.3%
[3]
  viability, T/C: 110%
[4]
  viability, T/C: 100%
[5]
  viability, T/C: 106%
[6]
  viability, T/C: 100%
[7]
  viability, T/C: 101%
[8]
  viability, T/C: 103%
[9]
  viability, T/C: 103%
[10]
  viability, T/C: 102%
[11]
  viability, T/C: 106%
[12]
  viability, T/C: 103%
[13]
  viability, T/C: 99.2%
[14]
  viability, T/C: 101%
[15]
  viability, T/C: 107%
[16]
  viability, T/C: 103%
[17]
  viability, T/C: 107%
[18]
  viability, T/C: 103%
[19]
  viability, T/C: 90.5%
[20]
  viability, T/C: 100%
[21]
  viability, T/C: 108%
[22]
  viability, T/C: 107%
[23]
  viability, T/C: 110%
[24]
  viability, T/C: 102%
[25]
  viability, T/C: 95.6%
[26]
  viability, T/C: 102%
[27]
  viability, T/C: 104%
[28]
  viability, T/C: 106%
[29]
  viability, T/C: 107%
[30]
  viability, T/C: 98.3%
[31]
  viability, T/C: 99.8%
[32]
  viability, T/C: 102%
[33]
  viability, T/C: 103%
[34]
  viability, T/C: 107%
[35]
  viability, T/C: 105%
[36]
  viability, T/C: 101%
